Molecules are shown by their SMILES.

What is called melting point is the temperature of the solid-liquid transition. Compound `Fc1cccc(Cl)c1[C@@H]1C[C@H](c2ccc(Br)cc2)Nc2ncnn21` (relative stereo) [Example 28, cis-5-(4-Bromophenyl)-7-(2-chloro-6-fluorophenyl)-4,5,6,7-tetrahydro-[1,2,4]triazolo[1,5-a]pyrimidine] showed a melting point of 246 to 247 °C.

Take `Fc1ccc([C@H]2C[C@@H](c3c(F)cccc3Cl)n3ncnc3N2)cc1` (relative stereo) [Example 27, cis-7-(2-Chloro-6-fluorophenyl)-5-(4-fluorophenyl)-4,5,6,7-tetrahydro-[1,2,4]triazolo[1,5-a]pyrimidine]: the melting point fell in the range of 240 to 241 °C.

`COc1ccc([C@H]2C[C@@H](c3c(F)cccc3Cl)n3ncnc3N2)cc1` (relative stereo) [Example 30, cis-7-(2-Chloro-6-fluorophenyl)-5-(4-methoxyphenyl)-4,5,6,7-tetrahydro-[1,2,4]triazolo[1,5-a]pyrimidine] returned a melting point of 221 to 222 °C.

In turn, `Fc1cccc(Cl)c1C1C=C(c2cccc(Cl)c2)Nc2ncnn21` (stereo not drawn) [Example 6, 7-(2-Chloro-6-fluorophenyl)-5-(3-chlorophenyl)-4,7-dihydro-[1,2,4]triazolo[1,5-a]pyrimidine] showed a melting point of 246 to 248 °C.

In turn, `Cc1ccc(C2=CC(c3c(F)cccc3Cl)n3ncnc3N2)cc1C` (stereo not drawn) [Example 16, 7-(2-Chloro-6-fluorophenyl)-5-(3,4-dimethylphenyl)-4,7-dihydro-[1,2,4]triazolo[1,5-a]pyrimidine] gave a melting point of 217 to 218 °C.

`Fc1cccc(Cl)c1[C@@H]1C[C@H](c2ccc(-c3ccccc3)cc2)Nc2ncnn21` (relative stereo) [Example 31, cis-5-([1,1′-Biphenyl]-4-yl)-7-(2-chloro-6-fluorophenyl)-4,5,6,7-tetrahydro-[1,2,4]triazolo[1,5-a]pyrimidine]: the melting point lay within 213 to 215 °C.

In turn, `Fc1cccc(Cl)c1C1C=C(c2ccc(Cl)cc2)Nc2ncnn21` (stereo not drawn) [Example 1, 7-(2-Chloro-6-fluorophenyl)-5-(4-chlorophenyl)-4,7-dihydro-[1,2,4]triazolo[1,5-a]pyrimidine] yielded a melting point of 213 to 215 °C.

On to `Clc1ccc([C@H]2C[C@@H](c3c(Cl)cccc3Cl)n3ncnc3N2)cc1` (relative stereo) [Example 19, cis-5-(4-Chlorophenyl)-7-(2,6-dichlorophenyl)-4,5,6,7-tetrahydro-[1,2,4]triazolo[1,5-a]pyrimidine], for which the melting point is 246 to 247 °C.

Compound `Clc1ccc(C2=CC(c3c(Cl)cccc3Cl)n3ncnc3N2)cc1` (stereo not drawn) [Example 2, 5-(4-Chlorophenyl)-7-(2,6-dichlorophenyl)-4,7-dihydro-[1,2,4]triazolo[1,5-a]pyrimidine] showed a melting point of 235 °C.

The compound `Fc1cccc(Cl)c1[C@@H]1C[C@H](c2cccc(Cl)c2)Nc2ncnn21` (relative stereo) [Example 26, cis-7-(2-Chloro-6-fluorophenyl)-5-(3-chlorophenyl)-4,5,6,7-tetrahydro-[1,2,4]triazolo[1,5-a]pyrimidine] had a melting point of 262 to 263 °C.

As to `Fc1ccc(C2=CC(c3c(F)cccc3Cl)n3ncnc3N2)c(F)c1` (stereo not drawn) [Example 15, 7-(2-Chloro-6-fluorophenyl)-5-(2,4-difluorophenyl)-4,7-dihydro-[1,2,4]triazolo[1,5-a]pyrimidine], the melting point was in the range of 186 to 188 °C.

Take `Fc1cccc(Cl)c1[C@@H]1C[C@H](c2ccccn2)Nc2ncnn21` (relative stereo) [Example 38, cis-7-(2-Chloro-6-fluorophenyl)-5-(pyridin-2-yl)-4,5,6,7-tetrahydro-[1,2,4]triazolo[1,5-a]pyrimidine]: the melting point was 232 °C.

In turn, `Cc1ccc([C@H]2C[C@@H](c3c(F)cccc3Cl)n3ncnc3N2)cc1C` (relative stereo) [Example 36, cis-7-(2-Chloro-6-fluorophenyl)-5-(3,4-dimethylphenyl)-4,5,6,7-tetrahydro-[1,2,4]triazolo[1,5-a]pyrimidine] registered a melting point of 223 °C.

Take `Fc1cccc(Cl)c1[C@@H]1C[C@H](c2ccc(Cl)cc2Cl)Nc2ncnn21` (relative stereo) [Example 34, cis-7-(2-Chloro-6-fluorophenyl)-5-(2,4-dichlorophenyl)-4,5,6,7-tetrahydro-[1,2,4]triazolo[1,5-a]pyrimidine]: the melting point is 267 to 269 °C.

In turn, `CCc1ccc([C@H]2C[C@@H](c3c(F)cccc3Cl)n3ncnc3N2)cc1` (relative stereo) [Example 29, cis-7-(2-Chloro-6-fluorophenyl)-5-(4-ethylphenyl)-4,5,6,7-tetrahydro-[1,2,4]triazolo[1,5-a]pyrimidine] came in with a melting point of 230 to 231 °C.

The compound `CCc1ccc(C2=CC(c3c(F)cccc3Cl)n3ncnc3N2)cc1` (stereo not drawn) [Example 9, 7-(2-Chloro-6-fluorophenyl)-5-(4-ethylphenyl)-4,7-dihydro-[1,2,4]triazolo[1,5-a]pyrimidine] registered a melting point of 220 to 221 °C.

For `Fc1cccc(Cl)c1C1C=C(c2ccc(Br)cc2)Nc2ncnn21` (stereo not drawn) [Example 8, 5-(4-Bromophenyl)-7-(2-chloro-6-fluorophenyl)-4,7-dihydro-[1,2,4]triazolo[1,5-a]pyrimidine], the melting point is 242 to 243 °C.

For the compound `Fc1cccc(Cl)c1C1C=C(c2ccc(Cl)c(Cl)c2)Nc2ncnn21` (stereo not drawn) [Example 13, 7-(2-Chloro-6-fluorophenyl)-5-(3,4-dichlorophenyl)-4,7-dihydro-[1,2,4]triazolo[1,5-a]pyrimidine], the melting point lay within 246 to 247 °C.

`COc1ccc(C2=CC(c3c(F)cccc3Cl)n3ncnc3N2)cc1` (stereo not drawn) [Example 10, 7-(2-Chloro-6-fluorophenyl)-5-(4-methoxyphenyl)-4,7-dihydro-[1,2,4]triazolo[1,5-a]pyrimidine] had a melting point of 217 to 218 °C.

In turn, `Fc1cccc(Cl)c1C1C=C(c2ccc(Cl)cc2Cl)Nc2ncnn21` (stereo not drawn) [Example 14, 7-(2-Chloro-6-fluorophenyl)-5-(2,4-dichlorophenyl)-4,7-dihydro-[1,2,4]triazolo[1,5-a]pyrimidine] gave a melting point of 209 to 211 °C.

For `Fc1cccc(Cl)c1[C@@H]1C[C@H](c2ccccc2)Nc2ncnn21` (relative stereo) [Example 37, cis-7-(2-Chloro-6-fluorophenyl)-5-phenyl-4,5,6,7-tetrahydro-[1,2,4]triazolo[1,5-a]pyrimidine], the melting point lay in the range of 270 to 271 °C.

On to `Fc1cccc(Cl)c1C1C=C(c2ccc(-c3ccccc3)cc2)Nc2ncnn21` (stereo not drawn) [Example 11, 5-([1,1′-Biphenyl]-4-yl)-7-(2-chloro-6-fluorophenyl)-4,7-dihydro-[1,2,4]triazolo[1,5-a]pyrimidine], for which the melting point was 267 °C.

The compound `Clc1ccc([C@H]2C[C@@H](c3ccccc3)n3ncnc3N2)cc1` (relative stereo) [Example 24, cis-5-(4-Chlorophenyl)-7-phenyl-4,5,6,7-tetrahydro-[1,2,4]triazolo[1,5-a]pyrimidine] had a melting point of 210 to 212 °C.

On to `Fc1ccc(C2=CC(c3c(F)cccc3Cl)n3ncnc3N2)cc1` (stereo not drawn) [Example 7, 7-(2-Chloro-6-fluorophenyl)-5-(4-fluorophenyl)-4,7-dihydro-[1,2,4]triazolo[1,5-a]pyrimidine], for which the melting point fell in the range of 203 to 204 °C.

Source of the values: patent publication US9533990B2, “Inhibitors of secretion of hepatitis B virus antigens” (priority 2010, dated 2017).
